≈ marks a conversion by molar mass, not a printed value. Structures can show the parent of a compound that is named as a salt. Where two headings read alike, the source gives them in different places.
Key:
[1] = biological target: T1, Escherichia coli DAP-epimerase (E.C. 5.1.1.7) (Escherichia coli, UniProt P0A6K1); assay: Inhibition of Escherichia coli DAP-epimerase (E.C. 5.1.1.7); type: biochemical, Escherichia coli (PR7)
T1 construct: endogenous in cells; host or cells: E. coli PR7; Endogenous enzyme purified by ammonium sulfate 30-45%, DE52 and Matrix green A dye-ligand column
Description: Strains were inoculated into Nutrient bath (5 ml) and grown up overnight (16 hours) at 37° C. Small amounts of cells were obtained in shake flask cultures (50 ml-1000 ml) obtained by innoculating Igarashi medium (Igarashi et al., 1979), with 2% of the starter culture. Cells were harvested at late-log (OD 540 nm 0,7-0,8) and rinsed before storage at -20° C. Larger amounts of cells were obtained using an overnight culture (Igarashi medium) of 2,5 l as innoculum for 80 l of Igarashi medium in a Biolaffite Fermenter. Cells were harvested in late-log (OD 540 nm 2.0) using a filtration system for cell concentration (40 fold) followed by centrifugation.
Cells from E. Coli (PR7), usually in batches of 40 g, were suspended in 100 ml buffer A (20 mM potassium phosphate 1 mM EDTA, 1 mM DTT, pH 7.0) by using the Ultraturrax apparatus (10 min). Passage through the French press (20,000 lbs/sq ins) and centrifugation 30,000 xg for 20 min gave the S30 crude extract. The supernatent was fractionated by adding solid ammonium sulfate to 30%, centrifugation was followed by further ammonium sulfate to 45%. The precipitated protein was dissolved in buffer to give a final volume of 10 ml which was dialysed overnight against 2,000 ml of buffer A.
The dialysed crude enzyme preparation was applied to a DEAE-cellulose column (2.3×49 cms) DES52, equilibrated with buffer A. The column was washed with 250 ml of buffer A and eluted with a linear gradiant formed by adding 250 ml of buffer A containing 0,22M KCl to 250 ml of buffer A. The flow rate was 25 ml/hr and 10 ml fractions were collected. DAP-epimerase eluted near the end of the gradiant at approximately 0,20M KCl. Pooled fractions containing DAPepimerase activity were dialysed overnight against 2,000 ml buffer A. Enzyme was concentrated by applying the dialysate to a smal DES52 column (0.9×10 cms), rinsing with 50 ml of buffer A and eluting with buffer A containing 0,50M KCl. The flow-rate was 20 ml/hr and 2,5 ml fractions were collected. Enzyme activity eluted immediately and pooled fractions were dialized against 1,000 ml buffer A.
A final purification step was obtained by applying the concentrated dialysed enzyme to a dye ligand column (1,4×5 cms), Matrix green A, rinsing with 50 ml buffer A and then eluting with 50 ml of buffer A containing 1,2M […] collecting 5 ml fractions. Pooled fractions were dialysed and concentrated on a small DE52 as described above.
(§1) DAP-epimerase activity was routinely measured at 25° C. Reaction mixtures contained 0.1M Tris HCl (pH 7,8), 1 mH EDTA, 1 mM DTT and […] of [G-^3 H]DAP in a total volume of 0.10 ml. After incubation for 40 min, reaction mixtures were quenched with 0.5 ml of 10% TCA and applied to 1 ml of AG50×4 ion-exchange resin (H' form) contained in a column (about 0.4×2 cms) fashioned from a blue pipette cone. The column was washed with 3×0.5 ml of water and the combined eluants counted for radioactivity.
(§2) In vitro DAP-epimerase, purified as described above, was incubated at 25° C. with various concentrations of δ-fluoro-ε-carboxylysine (usually 0, 10, 20, 40, 80 and […]) as described in the enzyme assay above.
*Values determined by Dixon plots (Ref. Dixon, M., 1972).

[2] = test system: P. aerogerosa (ATCC 25619); assay: MIC, serial dilutions in plates, P. aerogerosa; type: cell-based
Description: (§3) The antibacterial spectrum and minimal inhibitory concentration (MIC) of typical compounds of the present invention are determined by one or more standard techniques. Thus, for example, serial dilutions of the compound being tested are made in tubes of rich medium containing no peptide […] (Atherton et al., 1979) or in plates containing the same medium plus agar. Series of tubes or plates of agar containing different concentrations of the test compound are inoculated with the cultures utilized to determine activity. After incubation for 24 hours at 37° C., the inoculated tubes or agar plates are examined for the inhibition of bacterial growth and an MIC is determined therefrom.
(§4) The following example illustrates the in vitro activity of the compounds of this invention against a variety of pathogenic organisms.
(§5) *Serial dilutions in plates as described by Atherton et al. (1979).

[3] = test system: S. marcescens (ATCC 8100); assay: MIC, serial dilutions in plates, S. marcescens; type: cell-based; details: Serratia marcescens, ATCC8100
Description: as §3, §4, §5

A. aerogenes (62.1) = assay: MIC, serial dilutions in plates, A. aerogenes; type: cell-based; details: Klebsiella aerogenes
Description: as §3, §4, §5

E. coli (PR7) = assay: MIC, serial dilutions in plates, E. coli; type: cell-based; details: Escherichia coli
Description: as §3, §4, §5

[4] = In vivo studies: serum levels in mice by bioassay; set-up: species or system CFW mice; details: for Serum half-life: mice
Description: Groups of 3 fasted CFW mice (20 g±2) were dosed subcutaneously with 20, 50 or 100 mg/kg or orally with 50 or 100 mg/kg of δ-fluoro-ε-carboxylysyl-L-alanyl-L-alanine. At intervals of from 10 min to 210 min, after dosing animals were anesthetised with ether, and heparinized blood samples obtained by eye-puncture. Samples were kept on ice and the plasma removed. After dilution (1:1) with saline, aliquots were assayed for δ-fluoro-ε-carboxylysyl-L-alanyl-alanine by bioassay.
The antibacterial activity of δ-fluoro-ε-carboxylysyl-L-alanyl-alanine was determined by plate assay on "Roche" agar medium (adjusted to pH 6,5-see Atherton et al. (1979) using Aerobacter aerogenes as the test strain. Standard solutions of δ-fluoro-ε-carboxylysyl-L-alanyl-alanine were prepared by suitable dilutions in water (from the same solution used for injection) and 0,4 μg to 7,0 μg were applied to sterile discs (9 mm dia.) concomittently with serum samples. After overnight incubation at 37° C., zones of inhibition were measured across two diameters. A standard plot of zone diameter vs log. concentration of standards was prepared. The average serum concentration of δ-fluoro-ε-carboxylysyl-L-alanyl-alanine from 3 mice was taken from this standard plot. Control serum had no activity and 50% serum had no effect on the standard plot.

[5] = biological target: T2, DAP-epimerase (EC 5.1.1.7) (Serratia marcescens, UniProt A0A0G3SSC4); assay: Inhibition of DAP-epimerase partially purified from Serratia marcescens; type: biochemical, Serratia marcescens (ATCC 8100); details: enzyme partially purified from S. marcescens (ATCC 8100) through to the first DE52 column
T2 sequence (A0A0G3SSC4 1-274): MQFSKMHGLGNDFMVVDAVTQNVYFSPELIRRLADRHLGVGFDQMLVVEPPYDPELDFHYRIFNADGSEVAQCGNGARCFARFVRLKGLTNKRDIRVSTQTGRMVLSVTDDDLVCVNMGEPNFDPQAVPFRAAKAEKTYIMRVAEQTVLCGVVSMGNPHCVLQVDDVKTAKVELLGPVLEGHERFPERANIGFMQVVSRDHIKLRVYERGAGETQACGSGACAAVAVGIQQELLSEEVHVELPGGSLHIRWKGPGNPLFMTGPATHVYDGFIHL
Description: as §1, §2
(§6) **DAPepimerase was partially purified from each organism as described
(§7) (Example VII) through to the first DE52 column except that with Aerobacte

[6] = biological target: T3, DAP-epimerase (EC 5.1.1.7) (Pseudomonas aeruginosa, UniProt Q51564); assay: Inhibition of DAP-epimerase partially purified from Pseudomonas aerogenosa; type: biochemical, Pseudomonas aerogenosa (ATCC 25619); details: enzyme partially purified from P. aerogerosa (ATCC 25619) through to the first DE52 column
T3 construct: **DAPepimerase was partially purified from each organism as described; endogenous in cells; host or cells: Pseudomonas aeruginosa ATCC 25619; Purified through the first DE52 column
T3 sequence (Q51564 1-276): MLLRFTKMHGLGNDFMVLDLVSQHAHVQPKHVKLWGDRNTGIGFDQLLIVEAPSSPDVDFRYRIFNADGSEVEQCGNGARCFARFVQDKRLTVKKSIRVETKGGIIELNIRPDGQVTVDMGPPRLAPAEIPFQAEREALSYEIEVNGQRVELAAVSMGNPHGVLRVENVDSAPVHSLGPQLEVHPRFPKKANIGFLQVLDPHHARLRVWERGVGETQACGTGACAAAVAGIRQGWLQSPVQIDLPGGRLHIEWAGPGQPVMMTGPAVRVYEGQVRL
Description: as §1, §2, §6, §7

T1 sequence (P0A6K1 whole entry): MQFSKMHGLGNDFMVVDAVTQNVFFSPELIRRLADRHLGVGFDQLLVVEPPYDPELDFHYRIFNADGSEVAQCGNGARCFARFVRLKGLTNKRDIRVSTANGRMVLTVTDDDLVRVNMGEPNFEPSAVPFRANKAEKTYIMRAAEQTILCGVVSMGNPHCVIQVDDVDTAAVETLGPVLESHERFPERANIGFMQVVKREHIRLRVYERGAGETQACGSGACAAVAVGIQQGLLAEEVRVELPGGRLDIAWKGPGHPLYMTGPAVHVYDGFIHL

| SMILES | MIC [2] [µg/mL] | MIC [3] [µg/mL] | MIC (A. aerogenes (62.1)) [µg/mL] | MIC (E. coli (PR7)) [µg/mL] | Ki [1] [µM] | also measured |
| --- | --- | --- | --- | --- | --- | --- |
| NC(CCC(F)(F)C(N)C(=O)O)C(=O)O (stereo not drawn) [δ,δ-difluoro-ε-carboxylysine, 1,5-diamino-2,2-difluoro-1,5-pentanedicarboxylic acid, dihydrochloride] | – | – | – | – | – | IC50 ([1]; purified E. coli DAP-epimerase, 25° C., read-out: IC50): 50 µM |
| C[C@H](NC(=O)[C@@H](N)CCC(F)C(N)C(=O)O)C(=O)O (stereo partly drawn) [δ-fluoro-ε-carboxylysylalanine, δ-Fluoro-ε-carboxylysyl-L-alanine] | 0.8 (≈ 2.86 µM) | 0.2 (≈ 0.716 µM) | 6 (≈ 21.5 µM) | 12.5 (≈ 44.8 µM) | – | – |
| C[C@H](NC(=O)[C@H](C)NC(=O)[C@@H](N)CCC(F)C(N)C(=O)O)C(=O)O (stereo partly drawn) [δ-FLUORO-ε-CARBOXYLYSYL-L-ALANYL-L-ALANINE] | 100 (≈ 285 µM) | 0.2 (≈ 0.571 µM) | 12.5 (≈ 35.7 µM) | 12.5 (≈ 35.7 µM) | – | Serum half-life ([4]; P.O. (printed on the 50 mg/kg line)): 1.07 h; Serum half-life ([4]; S.C. (printed on the 50 mg/kg line)): 1.2 h; Serum levels compared with minimum inhibition concentrations of infectious microorganisms ([4]; mouse, in vivo): consistently above the minimum inhibition concentrations |
| NC(CCC(Cl)C(N)C(=O)O)C(=O)O (stereo not drawn) [δ-chloro-ε-carboxylysine, 1,5-diamino-2-chloro-1,5-pentanedicarboxylic acid, dihydrochloride] | – | – | – | – | 0.5 | – |
| NC(CCC(F)C(N)C(=O)O)C(=O)O (stereo not drawn) [δ-fluoro-ε-carboxylysine, 3-fluoro-2,6-diaminopimelic acid] | – | – | – | – | 7.7 | IC50 [1]: 1.35 µM; Inhibition after aliquots were removed and diluted 50-fold with the assay medium ([1]; in vitro, enzyme incubated with inhibitor at 25° C., then diluted 50-fold): no inhibition was observed; Ki [5]: 1 µM; Ki [6]: 5.4 µM |
